Measured values from the NIST ThermoML archive (doi:10.1016/j.tca.2010.08.002).

Columns and labels:
[1] = molar heat capacity at constant pressure; settings: 101.33 kPa, Vacuum adiabatic calorimetry
[2] = Molar enthalpy of transition or fusion; settings: Adiabatic calorimetry

CCCCn1cc[n+](C)c1.O=S(=O)([O-])C(F)(F)F [1-butyl-3-methylimidazolium trifluoromethanesulfonate]
[1]
Settings | molar heat capacity at constant pressure [J/K/mol]
5 K, Crystal 2 | 1.486
10 K, Crystal 2 | 10.2
15 K, Crystal 2 | 23.78
20 K, Crystal 2 | 38.56
25 K, Crystal 2 | 52.98
30 K, Crystal 2 | 66.38
35 K, Crystal 2 | 78.37
40 K, Crystal 2 | 88.95
45 K, Crystal 2 | 98.67
50 K, Crystal 2 | 107.5
55 K, Crystal 2 | 115.5
60 K, Crystal 2 | 123
65 K, Crystal 2 | 130
70 K, Crystal 2 | 136.6
80 K, Crystal 2 | 148.9
90 K, Crystal 2 | 160
100 K, Crystal 2 | 170.5
110 K, Crystal 2 | 180.5
120 K, Crystal 1 | 192.4
120 K, Crystal 2 | 192.4
130 K, Crystal 1 | 198.6
140 K, Crystal 1 | 206.9
150 K, Crystal 1 | 216.1
160 K, Crystal 1 | 225.6
170 K, Crystal 1 | 235.5
180 K, Crystal 1 | 245.9
190 K, Crystal 1 | 256.7
200 K, Crystal 1 | 267.8
210 K, Crystal 1 | 279.3
220 K, Crystal 1 | 290.9
230 K, Crystal 1 | 302.8
240 K, Crystal 1 | 314.9
250 K, Crystal 1 | 327.1
260 K, Crystal 1 | 339.4
270 K, Crystal 1 | 351.9
280 K, Crystal 1 | 364.5
290 K, Crystal 1 | 377.3
290.98 K, Crystal 1 | 378.5
290.98 K, Liquid | 423.9
298.15 K, Liquid | 427.7
300 K, Liquid | 428.6
310 K, Liquid | 433.9
320 K, Liquid | 439.2
330 K, Liquid | 444.6
340 K, Liquid | 450
350 K, Liquid | 455.4
360 K, Liquid | 460.9
370 K, Liquid | 466.4

[2]
Settings | Molar enthalpy of transition or fusion [kcal/mol]
Crystal 1 | 4.644
Crystal 2 | 0.00311
